We go through 16 compounds from patent US8933233B2, “1,3,4-oxadiazole and 1,3,4-thiadiazole β-lactamase inhibitors” (priority 2012, dated 2015).

For test [1], the system named is bacterial strains that express KPC β-lactamases. The test is described as follows: Synergy MIC / standard BLI potentiation MIC assay, strains expressing KPC β-lactamases. It is filed as cell-based, isogenic E. coli and clinical isolates. The settings on record: more active for at least one KPC strain and/or better spectrum; comparator Avibactam. The method, then:
(§1) Unless otherwise indicated, the activity of the BLI compounds can be described by the MIC value obtained from a Synergy MIC assay or a BLI potentiation assay (e.g as described herein), both of which are run in the presence of a β-lactam.
(§2) The experimental protocol was performed according to Clinical and Laboratory Standards Institute (CLSI) guidelines with modifications as described below (CLSI guidelines can be derived from the CLSI document M07-A9 published in January 2012: “Methods for Dilution Antimicrobial Susceptibility Tests for Bacteria That Grow Aerobically; Approved Standard-Ninth Edition”).
(§3) To prepare for MIC testing, frozen glycerol stocks of clinical isolates (Klebsiella pneumoniae, Eschericia coli, Enterobacter spp, Citrobacter spp, or Pseudomonas aeruginosa) were used to streak for isolated colonies on rich, non-selective, tryptic soy agar containing 5% sheep's blood (TSAB). Frozen glycerol stocks of laboratory engineered, isogenic E. coli strains, which contain cloned β-lactamase expressing plasmids were used to streak for isolated colonies on rich, selective LB agar supplemented with 25 μg/mL tetracycline to maintain the plasmid. All strains were incubated at 37° C. for 18-24 hrs.
(§4) On the day of testing, primary cultures were started by scraping off 5-10 colonies from the TSAB plates containing clinical strains or the tetracycline supplemented LB plates containing engineered strains. The clinical strain material was suspended in ˜5 mL of cation adjusted Mueller Hinton Broth (CAMHB) in 14 mL culture tubes. The engineered strain material was suspended in CAMHB (supplemented with 25 μg/mL tetracycline) in 14 mL culture tubes. All strains were incubated at 37° C. with aeration (200 rpm) for ˜2 hrs until the optical density at 600 nm (OD600) was ≧0.1.
(§5) The two compound components of the assay were each diluted in CAMHB and added to the 96-well broth microdilution assay plates. 50 μL of the β-lactam was added to each well of the assay plate in 2-fold dilutions with final concentrations ranging from 128 to 0.13 μg/mL. 25 μL of the BLI compound was added to all wells in the broth microdilution plates at a final concentration of 4 μg/mL. Inoculum cultures were prepared by standardizing the primary cultures to OD600=0.1 and then adding 20 μL of the adjusted primary culture per 1 mL CAMHB for clinical strains or CAMHB (supplemented with tetracycline at 100 μg/mL) for engineered strains, so that the final inoculum density was ˜10^5 colony forming units per milliliter. Diluted inoculum cultures were used to inoculate 25 μL per well in 96-well broth microdilution assay plates. The final volume of each well was 100 μL and contained a β-lactam at different concentrations, a BLIcompound at 4 μg/mL concentration, the bacterial culture at an OD600 of approximately 0.001 and when necessary tetracycline at 25 μg/mL.
(§6) Plates were incubated for 18-20 hours at 37° C. with aeration (200 rpm). Following incubation, growth was confirmed visually placing plates over a viewing apparatus (stand with a mirror underneath) and then OD600 was measured using a SpectraMax 340PC384 plate reader (Molecular Devices, Sunnyvale, Calif.). Growth was defined as turbidity that could be detected with the naked eye or achieving minimum OD600 of 0.1. MIC values were defined as the lowest concentration producing no visible turbidity.
(§7) The synergy MIC (sMIC) assay determines the concentration of the BLI required to potentiate the activity of a fixed concentration of a β-lactam antibiotic against β-lactamase producing bacterial strains. The experimental protocol was performed according to Clinical and Laboratory Standards Institute (CLSI) guidelines with modifications as described below (CLSI guidelines can be derived from the CLSI document M07-A9 published in January 2012: “Methods for Dilution Antimicrobial Susceptibility Tests for Bacteria That Grow Aerobically; Approved Standard-Ninth Edition”). […]

Test [2] has as its system bacterial strains that express the class D cephalosporinase OXA-15. The experiment in a line: Synergy MIC / standard BLI potentiation MIC assay, strains expressing OXA-15. It is filed as cell-based, E. coli. The settings on record: in presence of a β-lactam; comparator Avibactam (CCC). As to the method: as §1, §2, §3, §4, §5, §6, §7

Where a name gives a salt, the structure may show the parent alone.

Turning to `N[C@H]1C[C@@H](NCc2nnc([C@@H]3CC[C@@H]4CN3C(=O)N4OS(=O)(=O)O)o2)C1` [Compound 756, (2S,5R)-2-(5-((((1s,3R)-3-aminocyclobutyl)amino)methyl)-1,3,4-oxadiazol-2-yl)-7-oxo-1,6-diazabicyclo[3.2.1]octan-6-yl hydrogen sulfate], the “activity and/or spectrum of activity against bacterial strains that express KPC β-lactamases, compared with Avibactam” value in test [1] is reported as “more active than Avibactam”. For the same compound, the “activity against bacterial strains that express OXA-15, compared with Avibactam” value in test [2] is recorded as “more active than Avibactam”.

On to `C[n+]1ccc(-c2nnc([C@@H]3CC[C@@H]4CN3C(=O)N4OS(=O)(=O)[O-])o2)cc1` [Compound 782, (2S,5R)-2-(5-(1-methylpyridin-1-ium-4-yl)-1,3,4-oxadiazol-2-yl)-7-oxo-1,6-diazabicyclo[3.2.1]octan-6-yl sulfate], for which the “activity and/or spectrum of activity against bacterial strains that express KPC β-lactamases, compared with Avibactam” value in test [1] is given as “more active than Avibactam”. In addition, the “activity against bacterial strains that express OXA-15, compared with Avibactam” value in test [2] is listed as “more active than Avibactam”.

In the case of `N[C@H]1C[C@@H](CCc2nnc([C@@H]3CC[C@@H]4CN3C(=O)N4OS(=O)(=O)O)o2)C1` [Compound 754, (2S,5R)-2-(5-(2-((1s,3S)-3-aminocyclobutyl)ethyl)-1,3,4-oxadiazol-2-yl)-7-oxo-1,6-diazabicyclo[3.2.1]octan-6-yl hydrogen sulfate], in test [1], the “activity and/or spectrum of activity against bacterial strains that express KPC β-lactamases, compared with Avibactam” value is on record as “more active than Avibactam”. The “activity against bacterial strains that express OXA-15, compared with Avibactam” value in test [2] is on record as “more active than Avibactam”.

Take `NC1CCN(Cc2nnc([C@@H]3CC[C@@H]4CN3C(=O)N4OS(=O)(=O)O)o2)CC1` [Compound 774, (2S,5R)-2-(5-((4-aminopiperidin-1-yl)methyl)-1,3,4-oxadiazol-2-yl)-7-oxo-1,6-diazabicyclo[3.2.1]octan-6-yl hydrogen sulfate]: the “activity and/or spectrum of activity against bacterial strains that express KPC β-lactamases, compared with Avibactam” value in test [1] is listed as “more active than Avibactam”. The “activity against bacterial strains that express OXA-15, compared with Avibactam” value in test [2] is “more active than Avibactam”.

Take `O=C1N2C[C@@H](CC[C@H]2c2nnc(COC3CNC3)o2)N1OS(=O)(=O)O` [Compound 744, (2S,5R)-2-(5-((azetidin-3-yloxy)methyl)-1,3,4-oxadiazol-2-yl)-7-oxo-1,6-diazabicyclo[3.2.1]octan-6-yl hydrogen sulfate]: the “activity and/or spectrum of activity against bacterial strains that express KPC β-lactamases, compared with Avibactam” value in test [1] is “more active than Avibactam”. Also, in test [2], the “activity against bacterial strains that express OXA-15, compared with Avibactam” value is “more active than Avibactam”.

As to `CC(C)(N)Cc1nnc([C@@H]2CC[C@@H]3CN2C(=O)N3OS(=O)(=O)O)o1` [Compound 737, (2S,5R)-2-(5-(2-amino-2-methylpropyl)-1,3,4-oxadiazol-2-yl)-7-oxo-1,6-diazabicyclo[3.2.1]octan-6-yl hydrogen sulfate], in test [1], the “activity and/or spectrum of activity against bacterial strains that express KPC β-lactamases, compared with Avibactam” value is “more active than Avibactam”. Besides, the “activity against bacterial strains that express OXA-15, compared with Avibactam” value in test [2] is on record as “more active than Avibactam”.

For the compound `N[C@@H]1CN[C@H](c2nnc([C@@H]3CC[C@@H]4CN3C(=O)N4OS(=O)(=O)O)o2)C1` [Compound 760, (2S,5R)-2-(5-((2S,4S)-4-aminopyrrolidin-2-yl)-1,3,4-oxadiazol-2-yl)-7-oxo-1,6-diazabicyclo[3.2.1]octan-6-yl hydrogen sulfate], the “activity and/or spectrum of activity against bacterial strains that express KPC β-lactamases, compared with Avibactam” value in test [1] is on record as “more active than Avibactam”. For the same compound, the “activity against bacterial strains that express OXA-15, compared with Avibactam” value in test [2] is listed as “more active than Avibactam”.

In the case of `CNCCCc1nnc([C@@H]2CC[C@@H]3CN2C(=O)N3OS(=O)(=O)O)o1` [Compound 734, 2S,5R)-2-(5-(3-(methylamino)propyl)-1,3,4-oxadiazol-2-yl)-7-oxo-1,6-diazabicyclo[3.2.1]octan-6-yl hydrogen sulfate], in test [1], the “activity and/or spectrum of activity against bacterial strains that express KPC β-lactamases, compared with Avibactam” value was “more active than Avibactam”. In addition, the “activity against bacterial strains that express OXA-15, compared with Avibactam” value in test [2] was “more active than Avibactam”.

With `N[C@H]1CN[C@H](c2nnc([C@@H]3CC[C@@H]4CN3C(=O)N4OS(=O)(=O)O)o2)C1` [Compound 762, (2S,5R)-2-(5-((2S,4R)-4-aminopyrrolidin-2-yl)-1,3,4-oxadiazol-2-yl)-7-oxo-1,6-diazabicyclo[3.2.1]octan-6-yl hydrogen sulfate], the “activity and/or spectrum of activity against bacterial strains that express KPC β-lactamases, compared with Avibactam” value in test [1] is “more active than Avibactam”. Moreover, in test [2], the “activity against bacterial strains that express OXA-15, compared with Avibactam” value is recorded as “more active than Avibactam”.

With `O=C1N2C[C@@H](CC[C@H]2c2nnc([C@H]3CNCCN3)o2)N1OS(=O)(=O)O` [Compound 779, (2S,5R)-7-oxo-2-(5-((R)-piperazin-2-yl)-1,3,4-oxadiazol-2-yl)-1,6-diazabicyclo[3.2.1]octan-6-yl hydrogen sulfate], the “activity and/or spectrum of activity against bacterial strains that express KPC β-lactamases, compared with Avibactam” value in test [1] is “more active than Avibactam”. Further, the “activity against bacterial strains that express OXA-15, compared with Avibactam” value in test [2] is given as “more active than Avibactam”.

As to `N[C@H]1CN[C@@H](c2nnc([C@@H]3CC[C@@H]4CN3C(=O)N4OS(=O)(=O)O)o2)C1` [Compound 761, (2S,5R)-2-(5-((2R,4R)-4-aminopyrrolidin-2-yl)-1,3,4-oxadiazol-2-yl)-7-oxo-1,6-diazabicyclo[3.2.1]octan-6-yl hydrogen sulfate], the “activity and/or spectrum of activity against bacterial strains that express KPC β-lactamases, compared with Avibactam” value in test [1] is recorded as “more active than Avibactam”. In test [2], the “activity against bacterial strains that express OXA-15, compared with Avibactam” value was “more active than Avibactam”.

Consider `N[C@H]1C[C@@H](Cc2nnc([C@@H]3CC[C@@H]4CN3C(=O)N4OS(=O)(=O)O)o2)C1` [Compound 728, (2S,5R)-2-(5-(((1s,3R)-3-aminocyclobutyl)methyl)-1,3,4-oxadiazol-2-yl)-7-oxo-1,6-diazabicyclo[3.2.1]octan-6-yl hydrogen sulfate], for which, in test [1], the “activity and/or spectrum of activity against bacterial strains that express KPC β-lactamases, compared with Avibactam” value was “more active than Avibactam”. Besides, the “activity against bacterial strains that express OXA-15, compared with Avibactam” value in test [2] was “more active than Avibactam”.

As to `N=C(N)Nc1nnc([C@@H]2CC[C@@H]3CN2C(=O)N3OS(=O)(=O)O)o1` [Compound 738, (2S,5R)-2-(5-guanidino-1,3,4-oxadiazol-2-yl)-7-oxo-1,6-diazabicyclo[3.2.1]octan-6-yl hydrogen sulfate], the “activity and/or spectrum of activity against bacterial strains that express KPC β-lactamases, compared with Avibactam” value in test [1] was “more active than Avibactam”. The “activity against bacterial strains that express OXA-15, compared with Avibactam” value in test [2] is reported as “more active than Avibactam”.

`O=C1N2C[C@@H](CC[C@H]2c2nnc([C@H]3[C@@H]4CNC[C@@H]43)o2)N1OS(=O)(=O)O` [Compound 740, (2S,5R)-2-(5-(3-azabicyclo[3.1.0]hexan-6-yl)-1,3,4-oxadiazol-2-yl)-7-oxo-1,6-diazabicyclo[3.2.1]octan-6-yl hydrogen sulfate]: the “activity and/or spectrum of activity against bacterial strains that express KPC β-lactamases, compared with Avibactam” value in test [1] is on record as “more active than Avibactam”. Further, the “activity against bacterial strains that express OXA-15, compared with Avibactam” value in test [2] is “more active than Avibactam”.

`NC1CCN(CCc2nnc([C@@H]3CC[C@@H]4CN3C(=O)N4OS(=O)(=O)O)o2)CC1` [Compound 775, (2S,5R)-2-(5-(2-(4-aminopiperidin-1-yl)ethyl)-1,3,4-oxadiazol-2-yl)-7-oxo-1,6-diazabicyclo[3.2.1]octan-6-yl hydrogen sulfate]: in test [1], the “activity and/or spectrum of activity against bacterial strains that express KPC β-lactamases, compared with Avibactam” value is listed as “more active than Avibactam”.

As for `O=C1N2C[C@@H](CC[C@H]2c2nnc([C@@H]3CNCCN3)o2)N1OS(=O)(=O)O` [Compound 778, (2S,5R)-7-oxo-2-(5-((S)-piperazin-2-yl)-1,3,4-oxadiazol-2-yl)-1,6-diazabicyclo[3.2.1]octan-6-yl hydrogen sulfate], in test [2], the “activity against bacterial strains that express OXA-15, compared with Avibactam” value is listed as “more active than Avibactam”.
